The text below walks through data of US20240189289A1, “INHIBITORS OF EPHB3 SIGNALING” (The Brigham and Women`s Hospital, Inc., priority 2021, published 2024).

Some results are limits rather than exact numbers.

For orientation: solubility means the dissolved amount per volume that the medium holds.

One data set has as its target T1, EphB4 (Homo sapiens, UniProt P54760).
T1 sequence (P54760 16-987): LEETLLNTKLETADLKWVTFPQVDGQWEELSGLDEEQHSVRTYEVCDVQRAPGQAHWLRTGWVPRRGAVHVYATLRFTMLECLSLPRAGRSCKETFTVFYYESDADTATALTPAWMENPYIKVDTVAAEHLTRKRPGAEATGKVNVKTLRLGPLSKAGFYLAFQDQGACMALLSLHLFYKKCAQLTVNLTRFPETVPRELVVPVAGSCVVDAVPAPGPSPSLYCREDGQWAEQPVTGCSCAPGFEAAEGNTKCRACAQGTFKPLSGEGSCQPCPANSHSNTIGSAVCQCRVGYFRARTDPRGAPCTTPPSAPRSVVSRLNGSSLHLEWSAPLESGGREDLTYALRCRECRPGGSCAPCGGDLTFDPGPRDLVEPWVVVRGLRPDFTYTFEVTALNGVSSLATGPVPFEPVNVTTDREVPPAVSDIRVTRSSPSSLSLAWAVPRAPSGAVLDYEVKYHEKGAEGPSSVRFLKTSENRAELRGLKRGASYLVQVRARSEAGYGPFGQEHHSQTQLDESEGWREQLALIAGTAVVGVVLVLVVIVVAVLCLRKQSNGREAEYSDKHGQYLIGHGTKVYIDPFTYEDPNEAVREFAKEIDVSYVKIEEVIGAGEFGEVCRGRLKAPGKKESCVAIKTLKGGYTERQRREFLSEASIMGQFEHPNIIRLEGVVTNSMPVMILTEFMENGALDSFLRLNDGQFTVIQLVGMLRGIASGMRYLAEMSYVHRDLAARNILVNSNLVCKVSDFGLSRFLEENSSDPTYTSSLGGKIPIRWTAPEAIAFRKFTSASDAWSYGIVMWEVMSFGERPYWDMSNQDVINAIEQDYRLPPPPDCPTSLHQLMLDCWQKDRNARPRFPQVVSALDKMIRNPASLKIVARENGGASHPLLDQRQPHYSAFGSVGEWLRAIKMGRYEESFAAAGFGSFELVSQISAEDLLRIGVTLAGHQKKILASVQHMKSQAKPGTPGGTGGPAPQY
As to the kind of experiment: Eph receptor kinase activity assay (radiometric), EphB4. Format: biochemical.

A further data set can be described thus: Aqueous solubility. As to conditions: aqueous medium at pH 7.4 (buffer not specified), pH 7.4, aqueous buffer; read-out: aqueous solubility. The data set is classed as physicochemical.
The next data set concerns the target T2, EphB3 (Homo sapiens, UniProt P54753).
T2 sequence (P54753 34-998): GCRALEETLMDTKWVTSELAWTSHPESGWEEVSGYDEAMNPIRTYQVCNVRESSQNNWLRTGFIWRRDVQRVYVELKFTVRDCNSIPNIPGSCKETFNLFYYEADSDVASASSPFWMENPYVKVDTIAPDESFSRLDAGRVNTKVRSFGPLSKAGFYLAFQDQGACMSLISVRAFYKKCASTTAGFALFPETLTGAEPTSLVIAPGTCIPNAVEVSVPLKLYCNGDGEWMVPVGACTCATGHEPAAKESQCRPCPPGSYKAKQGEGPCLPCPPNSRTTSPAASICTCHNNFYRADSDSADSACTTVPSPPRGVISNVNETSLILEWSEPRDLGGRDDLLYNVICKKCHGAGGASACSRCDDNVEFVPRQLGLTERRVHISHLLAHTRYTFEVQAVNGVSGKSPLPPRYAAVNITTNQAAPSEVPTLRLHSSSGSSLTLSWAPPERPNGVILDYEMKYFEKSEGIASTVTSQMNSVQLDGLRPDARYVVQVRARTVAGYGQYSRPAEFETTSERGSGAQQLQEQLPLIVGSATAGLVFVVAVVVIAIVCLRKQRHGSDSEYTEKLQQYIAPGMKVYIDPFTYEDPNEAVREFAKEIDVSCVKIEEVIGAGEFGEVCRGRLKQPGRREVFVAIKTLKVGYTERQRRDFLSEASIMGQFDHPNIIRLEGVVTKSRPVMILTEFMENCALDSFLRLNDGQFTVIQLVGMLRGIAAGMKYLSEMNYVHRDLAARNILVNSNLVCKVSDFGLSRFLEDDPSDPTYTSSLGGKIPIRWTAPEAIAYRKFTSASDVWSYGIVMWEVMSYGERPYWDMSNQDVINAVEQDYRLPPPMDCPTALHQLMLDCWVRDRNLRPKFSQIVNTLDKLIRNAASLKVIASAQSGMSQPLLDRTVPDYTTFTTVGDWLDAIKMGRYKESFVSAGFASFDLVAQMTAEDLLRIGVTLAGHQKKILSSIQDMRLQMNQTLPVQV
As to the kind of experiment: EphB3 radiometric kinase activity assay (33P ATP filter binding). Format: biochemical. As for the experimental part: EphB3 radiometric kinase activity assay. To study the EphB3 kinase activity, a radioactive filter binding assay using 33P ATP was performed as described at the […] International Centre for Kinase profiling. […] The mix was harvested onto P81 filter plates and counts were read on a Topcount NXT.

The next data set concerns the target EphA4 (Homo sapiens, UniProt P54764). As to the kind of experiment: Eph receptor kinase activity assay (radiometric), EphA4. The data set is classed as biochemical.
Data set [1] can be described thus: MTT and ATP-viability assays. The data set is classed as cell-based. As to conditions: 30 μM.
A further data set relates to astrocytes. As to the kind of experiment: Mitochondrial ROS measurement (MitoSOX) in astrocytes. Format: cell-based, mouse. As to conditions: Rotenone and Antimycin A given together. As to the method: Mitochondrial ROS measurement. 50,000 astrocytes were seeded per well in 96-well black plates and rested for 2 days in complete medium, followed by activation or inhibitor pretreatment for 24 h. MitoSOX red (Thermo Fisher Scientific, #M36008) was used to stain for mitochondrial ROS for 10 min following the manual and the signal was detected on Infinite M1000 PRO Microplate Reader (Tecan). The fluorescent signal was normalized to cell number estimated using CyQUANT cell proliferation assay kit (Invitrogen, #C7026) first and then compared to control group for data analysis.

EphA4, sequence (P54764 20-986): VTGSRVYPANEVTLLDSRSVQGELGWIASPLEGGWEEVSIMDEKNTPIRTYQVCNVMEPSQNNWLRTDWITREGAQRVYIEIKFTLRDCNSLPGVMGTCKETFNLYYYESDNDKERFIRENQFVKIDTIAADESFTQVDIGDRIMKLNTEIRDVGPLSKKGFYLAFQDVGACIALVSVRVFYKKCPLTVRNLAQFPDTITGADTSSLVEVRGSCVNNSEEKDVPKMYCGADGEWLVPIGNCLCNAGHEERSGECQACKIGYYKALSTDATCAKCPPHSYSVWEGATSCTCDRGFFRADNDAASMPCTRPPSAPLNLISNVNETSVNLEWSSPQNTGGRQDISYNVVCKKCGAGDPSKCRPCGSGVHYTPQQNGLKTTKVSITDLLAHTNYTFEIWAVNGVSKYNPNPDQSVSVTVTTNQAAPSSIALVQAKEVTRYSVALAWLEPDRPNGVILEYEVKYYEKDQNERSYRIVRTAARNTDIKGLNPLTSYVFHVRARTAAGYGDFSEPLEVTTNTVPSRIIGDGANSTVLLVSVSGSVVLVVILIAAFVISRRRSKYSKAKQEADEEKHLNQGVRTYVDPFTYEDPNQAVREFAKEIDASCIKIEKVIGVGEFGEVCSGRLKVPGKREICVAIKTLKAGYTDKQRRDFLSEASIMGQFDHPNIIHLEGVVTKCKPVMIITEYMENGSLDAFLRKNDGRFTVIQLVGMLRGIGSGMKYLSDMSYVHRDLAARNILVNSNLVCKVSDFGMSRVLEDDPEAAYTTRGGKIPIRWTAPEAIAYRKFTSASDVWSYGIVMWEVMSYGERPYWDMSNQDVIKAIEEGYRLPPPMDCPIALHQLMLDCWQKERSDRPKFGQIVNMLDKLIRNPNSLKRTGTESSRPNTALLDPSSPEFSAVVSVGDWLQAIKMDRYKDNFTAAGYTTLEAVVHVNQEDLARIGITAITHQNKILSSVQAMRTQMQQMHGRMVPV

As for `O=C(Nc1ccccc1Cl)c1cnc2ccc(C3CCNCC3)cn12` [A-38, N-(2-chlorophenyl)-6-(piperidin-4-yl)imidazo[1,2-a]pyridine-3-carboxamide], the remaining activity at 0.01 µM came out at 68% on EphB4 (10 nM compound, read-out: EphB4 % act 10 nM) and 37% on EphB3 (10 nM compound, read-out: EphB3 % act 10 nM). In addition, the remaining activity at 0.1 µM on EphB4 (100 nM compound, read-out: EphB4 % act 100 nM) amounted to 9%; on EphB3 (100 nM compound, read-out: EphB3 % act 100 nM), 14%. Besides, the remaining activity at 0.3 µM on EphB4 (300 nM compound, read-out: EphB4 % act 300 nM) came out at 3%; at EphB3 (300 nM compound, read-out: EphB3 % act 300 nM), 7%. Also, in “Aqueous solubility”, the solubility was > 10000 µg/mL. In addition, at EphA4 (10 nM compound), the “EphA4 % act 10 nM” value turned out to be 32%. For the same molecule, at EphA4 (100 nM compound), the “EphA4 % act 100 nM” value was found to be 14%. Besides, the “EphA4 % act 300 nM” value at EphA4 (300 nM compound) was determined as 9%. Besides, the “cytotoxicity in MTT and ATP-viability assays” value in data set [1] was “no cytotoxicity”.

On to `C=C(C)[C@H]1Cc2c(ccc3c2O[C@@H]2COc4cc(OC)c(OC)cc4[C@@H]2C3=O)O1` [Rotenone, reference compound], for which, in the data set with astrocytes, the “mitochondrial ROS levels” value was “increases mitochondrial ROS levels”.
